In article PMC3402541, “Guanidylation and Tail Effects in Cationic Antimicrobial Lipopeptoids” (PLoS ONE, 2012):
≈ marks a conversion by molar mass, not a printed value. Where a SMILES comes first, the peptide text is derived from it. [ ]: non-standard residue; d: D form. The star is where a group is joined. Arachidoyl = CCCCCCCCCCCCCCCCCCCC(=O)*; Nlys = NCCCCNCC(=O)O

Key:
S.aureus ATCC 29213 = type: cell-based, Staphylococcus aureus; details: ATCC 29213, 24 h
Description: (§1) Antimicrobial activity of the purified lipopeptoids was determined without replication against a panel of clinically relevant and standard reference bacterial strains according to CLSI macrobroth standards. Stock solutions at 512 µg/mL were prepared in water, with DMSO as needed, and testing was performed in glass test tubes using Muller-Hinton broth and bacteria adjusted to 5 × 10^5 CFU/mL. Bacteria were incubated with the lipopeptoid of interest for 24 hr at 37°C prior to reading.
(§2) The bacteria Staphylococcus aureus ATCC 29213, methicillin-resistant S. aureus ATCC 33592, Staphylococcus epidermidis ATCC 14990, Enterococcus faecalis ATCC 29212, E. faecium ATCC 27270, Streptococcus pneumoniae ATCC 49619, Escherichia coli ATCC 25922, Pseudomonas aeruginosa ATCC 27853, and Klebsiella pneumoniae ATCC 13883 were acquired from the American Type Culture Collection (ATCC) and used as quality controls. The clinical strains methicillin-resistant S. epidermidis (MRSE) CAN-ICU 61589, E. coli CAN-ICU 61714, E. coli CAN-ICU 63074, P. aeruginosa CAN-ICU 62308, Stenotrophomonas maltophilia CAN-ICU 62584, Acinetobacter baumannii CAN-ICU 63169 were obtained from hospitals across Canada as part of the CAN-ICU studies, while methicillin-susceptible S. epidermidis (MSSE) 81388 was obtained from the 2008 CANWARD study.
(§3) After subculturing the relevant bacteria twice from frozen stock, in vitro activities of the antimicrobials were determined by macrobroth dilution methodology in accordance with the Clinical and Laboratory Standards Institute (CLSI) guidelines (3). The MICs were determined using glass test tubes (2 mL/tube) containing doubling antimicrobial dilutions of cation adjusted Mueller-Hinton broth inoculated to achieve a final concentration of approximately 5 x 10^5 CFU/mL, incubated in ambient air for 24 hr prior to reading. Colony counts were performed periodically to confirm inocula. The ATCC organisms […] ATCC 49619, Staphylococcus aureus ATCC 29213, Enterococcus faecalis ATCC 29212, Escherichia coli ATCC 25922, and Pseudomonas aeruginosa ATCC 27853 were used as quality control and to allow easy comparison to previously tested antimicrobials. Each test in this series was performed without replication. In our experience with cationic amphiphiles the results are accurate to within a single doubling.

MRSA ATCC 33592 = type: cell-based, methicillin-resistant S. aureus; details: ATCC 33592, 24 h
Description: as §1, §2, §3

MSSE 81388 CANWARD 2008 = type: cell-based, methicillin-susceptible S. epidermidis; details: 24 h
Description: as §1, §2, §3

MRSE CAN-ICU 61589 = type: cell-based, methicillin-resistant S. epidermidis; details: CAN-ICU 61589, 24 h
Description: as §1, §2, §3

E. faecalis ATCC 29212 = type: cell-based, Enterococcus faecalis; details: ATCC 29212, 24 h
Description: as §1, §2, §3

S.pneumoniae ATCC 49619 = type: cell-based, Streptococcus pneumoniae; details: ATCC 49619, 24 h
Description: as §1, §2, §3

P.aeruginosa ATCC 27853 = type: cell-based, Pseudomonas aeruginosa; details: ATCC 27853, 24 h
Description: as §1, §2, §3

[1] = test system: P.aeruginosa CAN-ICU 62308; type: cell-based, Pseudomonas aeruginosa; details: CAN-ICU 62308, 24 h
Description: as §1, §2, §3

[2] = test system: S. maltophilia CAN-ICU 62584; type: cell-based, Stenotrophomonas maltophilia; details: CAN-ICU 62584, 24 h
Description: as §1, §2, §3

[3] = test system: A. baumannii CAN-ICU 63169; type: cell-based, Acinetobacter baumannii; details: CAN-ICU 63169, 24 h
Description: as §1, §2, §3

K.pneumoniae ATCC 13883 = type: cell-based, Klebsiella pneumoniae; details: ATCC 13883, 24 h
Description: as §1, §2, §3

ovine erythrocytes = assay: Haemolytic assay; type: cell-based, sheep; details: ovine erythrocytes in Tris buffered saline, 30 minutes, absorbance of supernatant at 540 nm
Description: Mammalian cell toxicity was determined by measuring lysis of ovine erythrocytes, a standard model for human cell toxicity. Cells were prewashed with Tris buffered saline and then incubated with a variety of lipopeptoid concentrations for 30 minutes. Following centrifugation, lysis was evaluated by testing the absorbance of the solution at 540 nm, with 0.5% NH4OH used as a positive control.
Toxicity to mammalian cells was determined using a sheep red blood cell (erythrocyte) haemolytic assay (4). Erythrocytes were washed and resuspended in Tris buffered saline prior to use, at a concentration of 1.46 - 4.5 x 10^9 cells/mL (on average 3.08 x 10^9 cells/mL). The cell suspension was diluted with varying concentrations of antimicrobials, from 50 μg/mL to 1 mg/mL and incubated for thirty minutes (final erythrocyte concentration 4.08 x 10^8 cells/mL). The samples were centrifuged following treatment and the absorbance of the supernatant was measured at 540 nm. A solution of 0.5% […] was used as a positive control, with normal buffered solution as the negative control. The toxicity was assessed as a function of percent haemolysis.

E.coli ATCC 25922 = type: cell-based, Escherichia coli; details: ATCC 25922, 24 h
Description: as §1, §2, §3

E.coli CAN-ICU 61714 = type: cell-based, Escherichia coli; details: CAN-ICU 61714, 24 h
Description: as §1, §2, §3

E.coli CAN-ICU 63074 = type: cell-based, Escherichia coli; details: CAN-ICU 63074, 24 h
Description: as §1, §2, §3

E. faecium ATCC 27270 = type: cell-based; details: ATCC 27270, 24 h
Description: as §1, §2, §3

Row | Compound | MIC S.aureus (S.aureus ATCC 29213) [µg/mL] | MIC S.aureus in the presence of 4% bovine serum albumin (S.aureus ATCC 29213) [µg/mL] | MIC MRSA (MRSA ATCC 33592) [µg/mL] | MIC MRSA in the presence of 4% bovine serum albumin (MRSA ATCC 33592) [µg/mL] | MIC MSSE (MSSE 81388 CANWARD 2008) [µg/mL] | MIC MSSE in the presence of 4% bovine serum albumin (MSSE 81388 CANWARD 2008) [µg/mL] | MIC MRSE (MRSE CAN-ICU 61589) [µg/mL] | MIC MRSE in the presence of 4% bovine serum albumin (MRSE CAN-ICU 61589) [µg/mL] | MIC E. faecalis (E. faecalis ATCC 29212) [µg/mL] | MIC E. faecalis in the presence of 4% bovine serum albumin (E. faecalis ATCC 29212) [µg/mL] | MIC S.pneumoniae (S.pneumoniae ATCC 49619) [µg/mL] | MIC P.aeruginosa (P.aeruginosa ATCC 27853) [µg/mL] | MIC P.aeruginosa in the presence of 4% bovine serum albumin (P.aeruginosa ATCC 27853) [µg/mL] | MIC P.aeruginosa [1] [µg/mL] | MIC P.aeruginosa in the presence of 4% bovine serum albumin [1] [µg/mL] | MIC S. maltophilia [2] [µg/mL] | MIC S. maltophilia in the presence of 4% bovine serum albumin [2] [µg/mL] | MIC A. baumannii [3] [µg/mL] | MIC A. baumannii in the presence of 4% bovine serum albumin [3] [µg/mL] | MIC K.pneumoniae (K.pneumoniae ATCC 13883) [µg/mL] | further results
1 | CCCCCCCCCCCCCCCCCCCC(=O)N(CCCCN)CC(=O)NCC(=O)N(CCCCN)CC(N)=O [C20-NlysGNlys] (Arachidoyl-[Nlys]-Gly-[Nlys]-NH2) | 8 (≈ 12.8 µM) | 512 | 16 (≈ 25.6 µM) | 512 | 8 (≈ 12.8 µM) | 256 | 8 (≈ 12.8 µM) | 512 | 16 (≈ 25.6 µM) | 512 | 128 (≈ 205 µM) | 256 (≈ 410 µM) | >512 | 256 (≈ 410 µM) | >512 | 128 (≈ 205 µM) | >512 | 128 (≈ 205 µM) | >512 | 128 (≈ 205 µM) | MIC S.pneumoniae in the presence of 4% bovine serum albumin (S.pneumoniae ATCC 49619): 512 µg/mL; MIC K.pneumoniae in the presence of 4% bovine serum albumin (K.pneumoniae ATCC 13883): >512 µg/mL; Percent haemolysis at 100µg/mL of compound (ovine erythrocytes): 33.51%; MIC E.coli (E.coli ATCC 25922): 256 µg/mL (≈ 410 µM); MIC E.coli in the presence of 4% bovine serum albumin (E.coli ATCC 25922): >512 µg/mL; MIC E.coli (E.coli CAN-ICU 61714): 256 µg/mL (≈ 410 µM); MIC E.coli in the presence of 4% bovine serum albumin (E.coli CAN-ICU 61714): >512 µg/mL; MIC E.coli (E.coli CAN-ICU 63074): 128 µg/mL (≈ 205 µM); MIC E.coli in the presence of 4% bovine serum albumin (E.coli CAN-ICU 63074): >512 µg/mL; MIC E. faecium (E. faecium ATCC 27270): 16 µg/mL (≈ 25.6 µM); MIC E. faecium in the presence of 4% bovine serum albumin (E. faecium ATCC 27270): 512 µg/mL
2 | CCCCCCCCCCCCCCCC(=O)N(CCCCNC(=N)N)CC(=O)N(CCCCNC(=N)N)CC(=O)N(CCCCNC(=N)N)CC(N)=O [C16-NhargNhargNharg] | 8 (≈ 10.4 µM) | 512 | 16 (≈ 20.9 µM) | 512 | 8 (≈ 10.4 µM) | 256 | 8 (≈ 10.4 µM) | 512 | 16 (≈ 20.9 µM) | 512 | 64 (≈ 83.5 µM) | 64 (≈ 83.5 µM) | >512 | 64 (≈ 83.5 µM) | >512 | 128 (≈ 167 µM) | >512 | 128 (≈ 167 µM) | >512 | 256 (≈ 334 µM) | MIC K.pneumoniae in the presence of 4% bovine serum albumin (K.pneumoniae ATCC 13883): >512 µg/mL; Percent haemolysis at 100µg/mL of compound (ovine erythrocytes): 30.80%; MIC E.coli (E.coli ATCC 25922): 16 µg/mL (≈ 20.9 µM); MIC E.coli in the presence of 4% bovine serum albumin (E.coli ATCC 25922): 512 µg/mL; MIC E.coli (E.coli CAN-ICU 61714): 32 µg/mL (≈ 41.8 µM); MIC E.coli in the presence of 4% bovine serum albumin (E.coli CAN-ICU 61714): 512 µg/mL; MIC E.coli (E.coli CAN-ICU 63074): 32 µg/mL (≈ 41.8 µM); MIC E.coli in the presence of 4% bovine serum albumin (E.coli CAN-ICU 63074): >512 µg/mL; MIC E. faecium (E. faecium ATCC 27270): 16 µg/mL (≈ 20.9 µM); MIC E. faecium in the presence of 4% bovine serum albumin (E. faecium ATCC 27270): 512 µg/mL
